Test results as given in patent US5436229A, “Bisulfite adducts of arginine aldehydes” (Eli Lilly and Company, priority 1994, dated 1995).

Columns and labels:
Type in all cases: biochemical
Bovine trypsin = molecular target: T1, Bovine trypsin (Bos taurus, UniProt P00760); experiment: Serine protease inhibition (Kass), trypsin
T1 construct: Bovine trypsin is purchased from Worthington Biochemicals; purchased Worthington Biochemicals, Freehold, N.J
T1 sequence (P00760 24-246): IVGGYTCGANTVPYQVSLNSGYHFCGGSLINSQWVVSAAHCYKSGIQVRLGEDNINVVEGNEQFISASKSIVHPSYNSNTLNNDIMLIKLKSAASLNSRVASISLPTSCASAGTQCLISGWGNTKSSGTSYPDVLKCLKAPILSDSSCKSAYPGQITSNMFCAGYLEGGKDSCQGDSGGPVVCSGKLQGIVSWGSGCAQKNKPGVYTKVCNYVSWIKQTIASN
Procedure: (§1) By substantially following the procedures described above for human thrombin, and using other human blood coagulation system serine proteases and using fibrinolytic system serine proteases, with the appropriate chromogenic substrates, identified below, the selectivity of the compounds of the present invention with respect to the coagulation factor serine proteases and to the fibronolytic serine proteases are evaluated as well as their substantial lack of interference with human plasma clot fibrinolysis.
(§2) Human factors X, Xa, IXa, XIa, and XIIa are purchased from Enzyme Research Laboratories, South Bend, Ind.; human urokinase from Leo Pharmaceuticals, Denmark; and recombinant activated Protein C (aPC) is prepared at Eli Lilly and Co. substantially according to U.S. Pat. No. 4,981,952 incorporated by reference herein in its entirety. Chromogenic substrates: N-Benzoyl-Ile-Glu-Gly-Arg-p-nitroanilide (for factor Xa); N-Cbz-D-Arg-Gly-Arg-p-nitroanilide (for factor IXa assay as the factor Xa substrate); Pyroglutamyl-Pro-Arg-p-nitroanilide (for Factor XIa and for aPC); H-D-Pro-Phe-Arg-p-nitroanilide (for factor XIIa); and Pyroglutamyl-Gly-Arg-p-nitroanilide (for urokinase); are purchased from KabiVitrum, Stockholm, Sweden, or from Midwest Biotech, Fishers, Ind. Bovine trypsin is purchased from Worthington Biochemicals, Freehold, N.J., and human plasma kallikrein from Kabi Vitrum, Stockholm, Sweden. Chromogenic substrate H-D-Pro-Phe-Arg-p-nitroanilide for plasma kallikrein is purchased from Kabi Vitrum, Stockholm, Sweden. N-Benzoyl-Phe-Val-Arg-p-nitroanilide, the substrate for human thrombin and for trypsin, is synthesized according to procedures described above for the compounds of the present invention, using known methods of peptide coupling from commercially available reactants, or purchaed from Midwest Biotech, Fishers, Ind.

human plasma [1] = experiment: Human plasma anticoagulation, activated partial thromboplastin time (APTT)
Procedure: (§3) Fibrinogen is prepared from in-date ACD human blood as the fraction I-2 according to previous procedures and specifications. Smith, Biochem. […] Coagulation reagents ACTIN, Thromboplastin, and Human plasma are from Baxter Healthcare Corp., Dade Division, Miami, Fla. Bovine thrombin from Parke-Davis (Detroit, Mich.) is used for coagulation assays in plasma. Coagulation assay procedures are as previously described. […] A CoAScreener coagulation instrument (American LABor, Inc.) is used for all coagulation assay measurements. […] The compounds of formula I are added to human or animal plasma over a wide range of concentrations to determine prolongation effects on the APTT, PT, and TT assays. Linear extrapolations are performed to estimate the concentrations required to double the clotting time for each assay.

factor Xa = molecular target: T2, factor Xa (Homo sapiens, UniProt P00742); experiment: Serine protease inhibition (Kass), factor Xa
T2 construct: Human factors X, Xa, IXa, XIa, and XIIa are purchased from Enzyme Research Laboratories; purchased Enzyme Research Laboratories, South Bend, Ind
T2 sequence (P00742 235-488 limits assumed): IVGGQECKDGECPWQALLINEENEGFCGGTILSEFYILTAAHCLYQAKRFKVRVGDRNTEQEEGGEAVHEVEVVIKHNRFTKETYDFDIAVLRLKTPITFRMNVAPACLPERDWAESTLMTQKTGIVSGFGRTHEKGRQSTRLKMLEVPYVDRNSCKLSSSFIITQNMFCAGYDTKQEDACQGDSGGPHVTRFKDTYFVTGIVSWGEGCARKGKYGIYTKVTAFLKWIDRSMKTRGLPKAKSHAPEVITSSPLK
T2 sequence (P00742 41-179 partner limits assumed): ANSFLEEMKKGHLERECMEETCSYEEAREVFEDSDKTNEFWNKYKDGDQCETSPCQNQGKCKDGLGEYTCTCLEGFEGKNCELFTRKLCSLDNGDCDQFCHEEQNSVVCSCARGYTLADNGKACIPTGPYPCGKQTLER
Procedure: as §1, §2

human thrombin = human thrombin (Homo sapiens, UniProt P00734); experiment: Thrombin amidase inhibition (Kass), chromogenic substrate
Procedure: The assay is carried out by mixing 50 μl buffer (0.03M Tris, 0.15M NaCl, pH 7.4) with 25 μl of human thrombin solution (purified human thrombin, Enzyme Research Laboratories, South Bend, Ind., at 8 NIH units/ml) and 25 μl of test compound in a solvent (50% aqueous methanol (v:v)). Then 150 μl of an aqueous solution of the chromogenic substate (at 0.25 mg/ml) are added and the rates of hydrolysis of the substrate are measured by monitoring the reactions at 405 nm for the release of p-nitroaniline. Standard curves are constructed by plotting free thrombin concentration against hydrolysis rate. […] The amount of free inhibitor in each assay is calculated by subtracting the number of moles of bound thrombin from the number of moles of added inhibitor (test compound).
The Kass value is the hypothetical equilibrium constant for the reaction between thrombin and the test compound (I) . [formula]
Kass is calculated for a range of concentrations of test compounds and the mean value reported in units of liter per mole.

human plasma [2] = experiment: Human plasma anticoagulation, thrombin time (TT)
Procedure: as §3

Human plasmin = molecular target: T3, Human plasmin (Homo sapiens, UniProt P00747); experiment: Serine protease inhibition (Kass), plasmin
T3 construct: Human plasmin is purchased from Boehringer Mannheim; purchased Boehringer Mannheim, Indianapolis, Ind
T3 sequence (P00747 581-810 limits assumed): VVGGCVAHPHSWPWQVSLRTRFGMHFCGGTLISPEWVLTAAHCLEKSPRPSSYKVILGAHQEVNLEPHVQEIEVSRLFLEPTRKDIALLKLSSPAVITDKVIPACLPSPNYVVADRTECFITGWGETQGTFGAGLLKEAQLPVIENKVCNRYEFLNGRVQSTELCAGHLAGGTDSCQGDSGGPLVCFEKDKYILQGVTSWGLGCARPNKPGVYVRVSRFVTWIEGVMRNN
T3 sequence (P00747 97-580 partner limits assumed): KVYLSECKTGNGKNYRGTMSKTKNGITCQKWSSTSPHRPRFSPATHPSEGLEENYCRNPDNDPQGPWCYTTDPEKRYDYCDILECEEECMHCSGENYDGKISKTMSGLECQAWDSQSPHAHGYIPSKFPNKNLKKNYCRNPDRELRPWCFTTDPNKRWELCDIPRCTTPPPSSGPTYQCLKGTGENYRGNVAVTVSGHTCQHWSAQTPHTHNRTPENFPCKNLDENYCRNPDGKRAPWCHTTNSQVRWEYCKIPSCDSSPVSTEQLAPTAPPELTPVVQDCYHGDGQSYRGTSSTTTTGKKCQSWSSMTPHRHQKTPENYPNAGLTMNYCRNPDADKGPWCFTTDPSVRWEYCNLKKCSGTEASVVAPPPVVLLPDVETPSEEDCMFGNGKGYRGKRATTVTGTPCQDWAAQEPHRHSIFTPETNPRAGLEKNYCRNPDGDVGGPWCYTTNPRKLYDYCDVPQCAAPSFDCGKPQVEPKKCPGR
Procedure: as §1
(§4) Human plasmin is purchased from Boehringer Mannheim, Indianapolis, Ind.; nt-PA is purchased as single chain activity reference from American Diagnostica, Greenwich, Conn.; modified-t-PA6 (mt-PA6) is prepared at Eli Lilly and Company by procedure known in the art (See, Burck, et al., J. Biol. Chem., 265, […] (1990). Plasmin chromogenic substrate H-D-Val-Leu-Lys-p-nitroanilide and tissue plasminogen activator (t-PA) substrate H-D-Ile-Pro-Arg-p-nitroanilide are purchased from Kabi Vitrum, Stockholm, Sweden.

human plasma [3] = experiment: Human plasma anticoagulation, prothrombin time (PT)
Procedure: as §3

[4] = molecular target: T4, tissue plasminogen activator (t-PA) (Homo sapiens, UniProt P00750); experiment: Serine protease inhibition (Kass), t-PA
T4 construct: purchased American Diagnostica, Greenwich, Conn
T4 sequence (P00750 36-562): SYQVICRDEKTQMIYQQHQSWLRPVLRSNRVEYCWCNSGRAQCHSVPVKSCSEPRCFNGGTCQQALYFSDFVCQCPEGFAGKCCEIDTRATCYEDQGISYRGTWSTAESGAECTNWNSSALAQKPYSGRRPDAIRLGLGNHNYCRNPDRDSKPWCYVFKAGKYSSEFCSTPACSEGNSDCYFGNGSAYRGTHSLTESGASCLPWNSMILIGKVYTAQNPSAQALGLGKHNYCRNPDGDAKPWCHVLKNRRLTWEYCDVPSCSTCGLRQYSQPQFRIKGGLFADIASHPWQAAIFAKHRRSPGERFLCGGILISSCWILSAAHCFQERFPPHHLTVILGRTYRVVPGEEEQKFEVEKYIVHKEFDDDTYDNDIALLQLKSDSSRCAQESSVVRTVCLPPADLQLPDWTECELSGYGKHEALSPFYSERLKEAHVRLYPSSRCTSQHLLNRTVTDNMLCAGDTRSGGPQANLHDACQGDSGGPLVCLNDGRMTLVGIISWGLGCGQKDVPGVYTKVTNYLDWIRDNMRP
Procedure: as §1, §4

| SMILES | Kass Trypsin (Bovine trypsin) | 2 × Clotting time APTT (human plasma [1]) | Kass Xa (factor Xa) | Kass Human Thrombin (human thrombin) | 2 × Clotting time TT (human plasma [2]) | Kass Plasmin (Human plasmin) | 2 × Clotting time PT (human plasma [3]) | Kass t-PA [4] |
| --- | --- | --- | --- | --- | --- | --- | --- | --- |
| CCS(=O)(=O)N[C@H](Cc1ccccc1)C(=O)N1CCC[C@@]1(C)C(=O)N[C@H](C=O)CCCNC(=N)N.Cl [Example 28, N-ethylsulfonyl-D-Phenylalanyl(α-methyl)-L-prolinyl-L-arginine aldehyde hydrochloride] | 20 L/mol × 10^6 | 1,600 ng/mL | 0.11 L/mol × 10^6 | 24 L/mol × 10^6 | 100 ng/mL | 0.31 L/mol × 10^6 | 2,400 ng/mL | 0.051 L/mol × 10^6 |
| CCOC(=O)N[C@@H](Cc1ccccc1)C(=O)N1CCC[C@@]1(C)C(=O)N[C@H](C=O)CCCNC(=N)N.Cl [Example 29, N-ethoxycarbonyl-phenylalanyl(αmethyl)-L-prolinyl-L-arginine aldehyde hydrochloride] | 1.7 L/mol × 10^6 | 5,400 ng/mL | 0.025 L/mol × 10^6 | 5.0 L/mol × 10^6 | 190 ng/mL | 0.020 L/mol × 10^6 | 6,100 ng/mL | 0.00072 L/mol × 10^6 |
| Cl.Cl.Cn1c(C(=O)N[C@](C)(Cc2ccccc2)C(=O)N2CCC[C@H]2C(=O)N[C@H](C=O)CCCNC(=N)N)cc2ccccc21 [Example 30, N-(1-methylindolyl-2-carbonyl)-D-phenylalanyl(α-methyl)-L-prolinyl-L -arginine aldehyde dihydrochloride] | 1.3 L/mol × 10^6 | 2,800 ng/mL | 0.013 L/mol × 10^6 | 25 L/mol × 10^6 | 220 ng/mL | 0.0083 L/mol × 10^6 | 4,200 ng/mL | 0.0022 L/mol × 10^6 |
| CCS(=O)(=O)NC1(C(=O)N2CCC[C@H]2C(=O)N[C@H](C=O)CCCNC(=N)N)CCCCC1.Cl [Example 31, 1-(ethylsulfonylamino)cyclohexoyl-L-prolinyl-L-arginine aldehyde hydrochloride] | 0.42 L/mol × 10^6 | 12,000 ng/mL | 0.036 L/mol × 10^6 | 3.2 L/mol × 10^6 | 300 ng/mL | 0.010 L/mol × 10^6 | 11,000 ng/mL | 0.00034 L/mol × 10^6 |
| Cl.Cn1c(C(=O)NC2(C(=O)N3CCC[C@H]3C(=O)N[C@H](C=O)CCCNC(=N)N)CCCCC2)cc2ccccc21 [Example 32, 1-(1-methylindolyl-2-carbonylamino)cyclohexoyl-L-prolinyl-L-arginine aldehyde hydrochloride] | 0.45 L/mol × 10^6 | 11,000 ng/mL | 0.024 L/mol × 10^6 | 5.7 L/mol × 10^6 | 1,000 ng/mL | 0.0071 L/mol × 10^6 | 9,200 ng/mL | 0.0011 L/mol × 10^6 |
| CCS(=O)(=O)N[C@@H](Cc1ccccc1)C(=O)N1CCC[C@@]1(C)C(=O)N[C@H](C=O)CCCNC(=N)N.Cl [Example 33, N-ethylsulfonylphenylalanyl(αmethyl)-L-prolinyl-L-arginine aldehyde hydrochloride] | 1.7 L/mol × 10^6 | 5,400 ng/mL | 0.027 L/mol × 10^6 | 0.6 L/mol × 10^6 | 300 ng/mL | 0.056 L/mol × 10^6 | 7,300 ng/mL | 0.007 L/mol × 10^6 |
| Cl.Cn1c(C(=O)NC(C)(Cc2ccccc2)C(=O)N2CCC[C@H]2C(=O)N[C@H](C=O)CCCNC(=N)N)cc2ccccc21 (stereo partly drawn) [Example 34, N-(1-methylindolyl-2carbonyl)phenylalanyl(αmethyl)-L-prolinyl-L-argi nine aldehyde hydrochloride] | 0.18 L/mol × 10^6 | 21,000 ng/mL | 0.002 L/mol × 10^6 | 2.8 L/mol × 10^6 | 1,800 ng/mL | 0.001 L/mol × 10^6 | 37,000 ng/mL | 0.009 L/mol × 10^6 |
| CCOC(=O)N[C@](CC)(Cc1ccccc1)C(=O)N1CCC[C@H]1C(=O)N[C@H](C=O)CCCNC(=N)N.Cl [Example 35, N-ethoxycarbonyl-D-phenylalanyl(αethyl)-L-prolinyl-L-arginine aldehyde hydrochloride] | 4.9 L/mol × 10^6 | 3,200 ng/mL | 0.036 L/mol × 10^6 | 57 L/mol × 10^6 | 93 ng/mL | 0.12 L/mol × 10^6 | 3,300 ng/mL | 0.002 L/mol × 10^6 |
| CCOC(=O)NC(CC)(Cc1ccccc1)C(=O)N1CCC[C@H]1C(=O)N[C@H](C=O)CCCNC(=N)N.Cl (stereo partly drawn) [Example 36, N-ethoxycarbonylphenylalanyl(αethyl)-L-prolinyl-L-arginine aldehyde hydrochloride] | 4.7 L/mol × 10^6 | 5,000 ng/mL | 0.078 L/mol × 10^6 | 6.5 L/mol × 10^6 | 310 ng/mL | 0.058 L/mol × 10^6 | 7,100 ng/mL | 0.001 L/mol × 10^6 |
